pIC50, pKi: −log10 of the molar value. The source made the active and inactive calls. No cut-off for these calls is given here.
Key:
[1] = Antioxidant activity assessed as ABTS radical scavenging activity incubated for 30 mins by spectrophotometric analysis; format: functional
[2] = molecular target: Cholinesterase (Equus caballus, UniProt P81908); test: Inhibition of equine serum BuChE using butyrylthiocholine iodide as substrate preincubated for 5 mins followed by substrate addition by DTNB based Ellman's method
[3] = molecular target: T1, Acetylcholinesterase (Electrophorus electricus, UniProt O42275); test: Inhibition of electric eel AChE using acetylthiocholine iodide as substrate preincubated for 5 mins followed by substrate addition by DTNB based Ellman's method
[4] = Selectivity ratio, ratio of IC50 for inhibition of equine serum BuChE to IC50 for inhibition of electric eel AChE
[5] = molecular target: T2, Acetylcholinesterase (Homo sapiens, UniProt P22303); test: Inhibition of human erythrocyte AChE using acetylthiocholine iodide as substrate preincubated for 5 mins followed by substrate addition by DTNB based Ellman's method
[6] = molecular target: T2, Acetylcholinesterase; test: Binding affinity to AChE (unknown origin) assessed as gibbs free energy change at temperature of 298 K at 0.001 to 0.009 mM incubated for 5 mins by fluorescence quenching analysis; conditions: dose 0.001-0.009 mM
[7] = Cytotoxicity against human SK-N-SH cells assessed as cell viability at 90 uM incubated for 24 hrs by MTT assay; format: toxicity, cell-based; conditions: read-out: Activity
[8] = molecular target: T2, Acetylcholinesterase; test: Binding affinity to AChE (unknown origin) assessed as reduction in intrinsic fluorescence intensity at pH 7.2 at 0.001 to 0.009 mM incubated for 5 mins by fluorescence quenching analysis; conditions: dose 0.001-0.009 mM
[9] = molecular target: T2, Acetylcholinesterase; test: Binding affinity to AChE (unknown origin) assessed as static fluorescence quenching at pH 7.2 at 0.001 to 0.009 mM incubated for 5 mins by Stern-Volmer quenching plot based fluorescence spectroscopy; conditions: dose 0.001-0.009 mM
[10] = molecular target: Amyloid-beta precursor protein (Homo sapiens) (UniProt P05067); test: Modulation of amyloid beta (1 to 42) (unknown origin) self aggregation assessed as increase in fluorescence intensity at 0.03 to 0.1 uM incubated for 24 hrs by Thioflavin T fluorescence assay; conditions: filed as modulator, dose 0.03-0.1 µM
[11] = test system: SK-N-SH; test: Neuroprotective activity against H2O2 induced oxidative cell damage in human SK-N-SH cells assessed as increase in cell viability at 30 to 60 uM preincubated for 3 hrs followed by H2O2 stimulation for 2 hrs by MTT assay (Rvb= 40%); format: functional, cell-based; conditions: dose 30-60 µM
[12] = test system: DNA; test: Induction of pBR322 plasmid DNA (unknown origin) damage assessed as protection against Fenton's reagent induced DNA (unknown origin) damage by observing disappearance of band at 20 to 80 uM incubated for 30 mins by Agarose gel electrophoresis analysis; format: nucleic-acid assay; conditions: dose 20-80 µM
[13] = Cytotoxicity against human SK-N-SH cells assessed as cell viability at 30 to 60 uM incubated for 24 hrs by MTT assay; format: toxicity, cell-based; conditions: dose 30-60 µM, read-out: Activity
[14] = molecular target: T2, Acetylcholinesterase; test: Binding affinity to AChE (unknown origin) assessed as decrease in negative bands intensity towards the baseline at […] incubated for 5 mins by Circular dichroism analysis; conditions: dose lower 0.001 nM
[15] = test system: Supercoiled DNA; test: Induction of supercoiled pBR322 plasmid DNA (unknown origin) cleavage assessed as DNA nicking at 10 uM incubated for 2 hrs by Agarose gel electrophoresis analysis; format: nucleic-acid assay
[16] = test system: SK-N-SH; test: Neuroprotective activity against H2O2 induced oxidative cell damage in human SK-N-SH cells assessed as increase in cell viability at 90 uM preincubated for 3 hrs followed by H2O2 stimulation for 2 hrs by MTT assay (Rvb= 40%); format: functional
[17] = molecular target: Amyloid-beta precursor protein (Homo sapiens) (UniProt P05067); test: Modulation of amyloid beta (1 to 42) (unknown origin) assembly assessed as morphological changes in amyloid beta (1 to 42) aggregates at 1 mM incubated for 3 days by FE-SEM image analysis relative to control; conditions: filed as modulator, time 3.0 day
[18] = molecular target: T1, Acetylcholinesterase; test: Mixed type inhibition of electric eel AChE using acetylthiocholine iodide as substrate assessed as inhibition constant of second plot of slope preincubated for 5 mins followed by substrate addition and measured after 5 mins by Ellman's method based double reciprocal Lineweaver-Burk plot analysis
[19] = molecular target: T1, Acetylcholinesterase; test: Mixed type inhibition of electric eel AChE using acetylthiocholine iodide as substrate assessed as inhibition constant of second plot of intercept preincubated for 5 mins followed by substrate addition and measured after 5 mins by Ellman's method based double reciprocal Lineweaver-Burk plot analysis
[20] = molecular target: Acetylcholinesterase (Electrophorus electricus) (UniProt O42275); test: Mixed type inhibition of electric eel AChE using acetylthiocholine iodide as substrate assessed as decrease in Vmax and increase in Km preincubated for 5 mins followed by substrate addition and measured after 5 mins by Ellman's method based double reciprocal Lineweaver-Burk plot analysis; conditions: time 10.0 min
Acetylcholinesterase (Electrophorus electricus), sequence (O42275 24-633 limits assumed): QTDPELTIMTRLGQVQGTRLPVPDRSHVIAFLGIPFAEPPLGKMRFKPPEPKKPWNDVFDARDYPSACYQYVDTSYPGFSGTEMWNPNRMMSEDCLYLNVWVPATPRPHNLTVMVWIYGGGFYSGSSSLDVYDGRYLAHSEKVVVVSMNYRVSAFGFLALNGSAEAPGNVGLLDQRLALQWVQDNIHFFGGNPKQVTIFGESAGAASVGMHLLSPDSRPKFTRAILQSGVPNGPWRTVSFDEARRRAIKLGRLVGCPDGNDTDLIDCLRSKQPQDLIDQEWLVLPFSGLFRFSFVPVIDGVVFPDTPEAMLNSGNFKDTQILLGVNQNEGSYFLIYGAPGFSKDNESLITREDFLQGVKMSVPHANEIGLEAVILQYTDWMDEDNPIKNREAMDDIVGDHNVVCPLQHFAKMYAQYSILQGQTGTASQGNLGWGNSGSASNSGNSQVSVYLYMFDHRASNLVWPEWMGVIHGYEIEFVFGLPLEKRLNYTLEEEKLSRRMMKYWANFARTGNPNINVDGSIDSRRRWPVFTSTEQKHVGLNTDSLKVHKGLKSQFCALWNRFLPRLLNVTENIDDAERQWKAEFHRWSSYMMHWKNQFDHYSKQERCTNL

T1 sequence (O42275 whole entry): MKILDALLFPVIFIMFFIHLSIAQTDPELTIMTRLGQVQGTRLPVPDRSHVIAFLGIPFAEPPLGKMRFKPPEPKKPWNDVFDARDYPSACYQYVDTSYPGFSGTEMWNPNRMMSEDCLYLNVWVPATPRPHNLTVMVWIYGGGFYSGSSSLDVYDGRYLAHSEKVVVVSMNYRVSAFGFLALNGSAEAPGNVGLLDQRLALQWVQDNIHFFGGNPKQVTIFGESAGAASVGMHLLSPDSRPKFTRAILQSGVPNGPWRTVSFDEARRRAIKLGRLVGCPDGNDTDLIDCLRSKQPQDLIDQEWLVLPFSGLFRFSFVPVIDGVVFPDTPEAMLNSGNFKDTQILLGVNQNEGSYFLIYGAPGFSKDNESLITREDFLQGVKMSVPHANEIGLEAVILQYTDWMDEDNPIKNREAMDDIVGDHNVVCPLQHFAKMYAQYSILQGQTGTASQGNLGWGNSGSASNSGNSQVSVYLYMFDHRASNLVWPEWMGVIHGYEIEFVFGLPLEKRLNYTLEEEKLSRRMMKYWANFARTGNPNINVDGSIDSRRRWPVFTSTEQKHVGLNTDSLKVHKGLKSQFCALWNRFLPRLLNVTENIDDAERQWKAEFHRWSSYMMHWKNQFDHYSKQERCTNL
T2 sequence (P22303 whole entry): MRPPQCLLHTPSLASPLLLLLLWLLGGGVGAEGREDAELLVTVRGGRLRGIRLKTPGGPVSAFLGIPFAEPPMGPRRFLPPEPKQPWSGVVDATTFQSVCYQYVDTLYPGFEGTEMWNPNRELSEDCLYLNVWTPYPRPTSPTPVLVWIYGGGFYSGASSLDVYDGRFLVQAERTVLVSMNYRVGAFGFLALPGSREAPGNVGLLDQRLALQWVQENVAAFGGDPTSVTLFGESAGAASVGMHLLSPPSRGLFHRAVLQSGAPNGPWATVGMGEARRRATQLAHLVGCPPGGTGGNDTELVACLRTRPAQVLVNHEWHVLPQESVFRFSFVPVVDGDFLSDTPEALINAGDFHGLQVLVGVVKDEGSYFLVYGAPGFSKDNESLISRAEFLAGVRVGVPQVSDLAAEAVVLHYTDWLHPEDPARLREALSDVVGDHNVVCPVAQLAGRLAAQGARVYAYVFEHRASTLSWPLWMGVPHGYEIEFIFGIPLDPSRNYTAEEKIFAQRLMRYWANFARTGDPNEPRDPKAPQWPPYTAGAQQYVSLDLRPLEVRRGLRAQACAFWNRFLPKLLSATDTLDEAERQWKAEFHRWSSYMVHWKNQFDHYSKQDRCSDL
Cholinesterase, sequence (P81908 whole entry): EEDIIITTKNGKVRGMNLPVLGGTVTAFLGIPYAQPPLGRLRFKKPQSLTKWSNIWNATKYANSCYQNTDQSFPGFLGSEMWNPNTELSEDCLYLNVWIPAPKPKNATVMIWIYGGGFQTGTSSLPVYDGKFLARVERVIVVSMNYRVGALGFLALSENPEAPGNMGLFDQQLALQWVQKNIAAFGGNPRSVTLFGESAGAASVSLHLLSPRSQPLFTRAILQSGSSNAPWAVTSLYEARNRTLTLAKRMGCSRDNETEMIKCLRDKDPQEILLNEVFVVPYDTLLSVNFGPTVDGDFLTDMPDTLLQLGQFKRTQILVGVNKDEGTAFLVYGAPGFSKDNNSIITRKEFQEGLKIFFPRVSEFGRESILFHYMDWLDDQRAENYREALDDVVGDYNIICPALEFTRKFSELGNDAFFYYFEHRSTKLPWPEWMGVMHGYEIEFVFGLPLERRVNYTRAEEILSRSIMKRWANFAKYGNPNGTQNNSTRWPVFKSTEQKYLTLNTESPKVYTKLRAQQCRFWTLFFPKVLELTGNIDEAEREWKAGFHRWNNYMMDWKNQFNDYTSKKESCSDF
Amyloid-beta precursor protein (Homo sapiens), sequence (P05067 whole entry): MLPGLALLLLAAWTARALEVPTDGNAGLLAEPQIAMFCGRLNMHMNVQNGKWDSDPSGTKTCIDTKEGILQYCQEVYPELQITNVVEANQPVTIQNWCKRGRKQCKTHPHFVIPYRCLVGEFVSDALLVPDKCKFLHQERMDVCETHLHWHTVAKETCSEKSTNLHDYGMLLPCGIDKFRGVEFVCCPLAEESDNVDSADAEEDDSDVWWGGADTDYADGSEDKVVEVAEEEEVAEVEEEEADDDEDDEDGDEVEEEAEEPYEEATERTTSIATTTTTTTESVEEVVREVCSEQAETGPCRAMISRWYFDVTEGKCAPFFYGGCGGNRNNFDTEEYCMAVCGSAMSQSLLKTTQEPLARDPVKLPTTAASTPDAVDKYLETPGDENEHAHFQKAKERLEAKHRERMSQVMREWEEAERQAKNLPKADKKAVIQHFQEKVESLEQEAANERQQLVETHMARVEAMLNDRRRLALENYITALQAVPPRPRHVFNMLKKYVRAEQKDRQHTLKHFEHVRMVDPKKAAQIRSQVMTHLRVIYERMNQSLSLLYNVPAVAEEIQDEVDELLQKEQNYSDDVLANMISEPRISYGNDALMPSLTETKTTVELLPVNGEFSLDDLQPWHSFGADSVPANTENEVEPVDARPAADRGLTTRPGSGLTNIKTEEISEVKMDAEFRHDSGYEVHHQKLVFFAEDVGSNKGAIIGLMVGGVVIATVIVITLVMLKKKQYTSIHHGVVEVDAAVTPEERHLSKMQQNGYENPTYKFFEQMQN

| Compound | pIC50 [1] | pIC50 [2] | pIC50 [3] | Ratio IC50 [4] | pIC50 [5] | other results |
| --- | --- | --- | --- | --- | --- | --- |
| Cc1c(C)c2c(c(C)c1O)CCC(C)(C(=O)O)O2 (stereo not given) [TROLOX] | 4.60 |  |  |  |  |  |
| CCOP(=O)(OCC)C(Nc1ccc(OC)cc1)c1ccc(OCc2nc3ccccc3c(=O)n2-c2ccc(F)cc2)c(OC)c1 (stereo not given) | 4.54 | < 4.00 | 6.37 |  |  |  |
| CCOP(=O)(OCC)C(Nc1ccccc1)c1ccc(OCc2nc3ccccc3c(=O)n2-c2ccc(F)cc2)c(OC)c1 (stereo not given) | < 4.30 | < 4.00 | 6.04 |  |  |  |
| CCOP(=O)(OCC)C(Nc1ccccc1C#N)c1ccc(OCc2nc3ccccc3c(=O)n2-c2ccc(F)cc2)c(OC)c1 (stereo not given) | 4.40 | 4.96 | 6.49 | 34.2 | 5.53 |  |
| CCOP(=O)(OCC)C(Nc1cccc(O)c1)c1ccc(OCc2nc3ccccc3c(=O)n2-c2ccc(F)cc2)c(OC)c1 (stereo not given) | 4.45 | < 4.00 | 6.43 |  | 5.36 |  |
| CCOP(=O)(OCC)C(Nc1ccccc1C)c1ccc(OCc2nc3ccccc3c(=O)n2-c2ccc(F)cc2)c(OC)c1 (stereo not given) | < 4.30 | 4.47 | 6.41 | 86 | 5.27 |  |
| CCOP(=O)(OCC)C(Nc1ccccc1CC)c1ccc(OCc2nc3ccccc3c(=O)n2-c2ccc(F)cc2)c(OC)c1 (stereo not given) | < 4.30 | 4.53 | 6.27 | 55.7 |  |  |
| CCOP(=O)(OCC)C(Nc1c(C)cccc1C)c1ccc(OCc2nc3ccccc3c(=O)n2-c2ccc(F)cc2)c(OC)c1 (stereo not given) | < 4.30 | < 4.00 | 6.45 |  | 5.52 |  |
| CCOP(=O)(OCC)C(Nc1ccccc1C(C)=O)c1ccc(OCc2nc3ccccc3c(=O)n2-c2ccc(F)cc2)c(OC)c1 (stereo not given) | 4.30 | 4.92 | 6.42 | 31.9 | 5.25 |  |
| CCOP(=O)(OCC)C(Nc1cccc(Cl)c1Cl)c1ccc(OCc2nc3ccccc3c(=O)n2-c2ccc(F)cc2)c(OC)c1 (stereo not given) | 4.53 | 4.63 | 6.51 | 76 | 5.59 | deltaG [6]: -29 kJ/mol; viability at 24 h, 90 µM [7]: 85%; Activity [8]: Dose-Dependent Effect; Activity [9]: Active; Activity [10]: Active; Activity [11]: Active; Activity [12]: Active; viability at 24 h, up to 60 µM [13]: > 90%; Activity [14]: Dose-Dependent Effect; Activity [15]: Active; Activity [16]: 65%; Activity [17]: Active |
| CCOP(=O)(OCC)C(Nc1ccc([N+](=O)[O-])cc1)c1ccc(OCc2nc3ccccc3c(=O)n2-c2ccc(F)cc2)c(OC)c1 (stereo not given) | 4.55 | < 4.00 | 6.50 |  | 5.75 |  |
| CCOP(=O)(OCC)C(Nc1ccc(Br)cc1)c1ccc(OCc2nc3ccccc3c(=O)n2-c2ccc(F)cc2)c(OC)c1 (stereo not given) | < 4.30 | < 4.00 | 6.31 |  |  |  |
| CCOP(=O)(OCC)C(Nc1ccccc1Br)c1ccc(OCc2nc3ccccc3c(=O)n2-c2ccc(F)cc2)c(OC)c1 (stereo not given) | < 4.30 | < 4.00 | 6.33 |  |  |  |
| CCOP(=O)(OCC)C(Nc1nncs1)c1ccc(OCc2nc3ccccc3c(=O)n2-c2ccc(F)cc2)c(OC)c1 (stereo not given) | < 4.30 | < 4.00 | 6.44 |  | 5.47 |  |
| COc1ccc2c3c1O[C@H]1C[C@@H](O)C=C[C@@]31CCN(C)C2 |  |  |  |  |  | Activity [10]: Dose-Dependent Effect |
| CCOP(=O)(OCC)C(Nc1ccccc1C(F)(F)F)c1ccc(OCc2nc3ccccc3c(=O)n2-c2ccc(F)cc2)c(OC)c1 (stereo not given) | 4.44 | < 4.00 | 6.47 |  | 5.31 |  |
| CCOP(=O)(OCC)C(Nc1ccc(C(=O)O)cc1)c1ccc(OCc2nc3ccccc3c(=O)n2-c2ccc(F)cc2)c(OC)c1 (stereo not given) | 4.52 | 4.69 | 6.54 | 70.1 | 5.94 | deltaG [6]: -31.5 kJ/mol; pKi [18]: 6.53; Activity [8]: Dose-Dependent Effect; pKi [19]: 6.53; Activity [9]: Active; Activity [10]: Active; Activity [11]: Active; viability at 24 h, up to 60 µM [13]: > 90%; Activity [14]: Dose-Dependent Effect; Activity [15]: inactive; Activity [16]: 65%; inhibition [20]: Active; Activity [17]: Active |
| CCOP(=O)(OCC)C(Nc1cc(C)cc(C)c1)c1ccc(OCc2nc3ccccc3c(=O)n2-c2ccc(F)cc2)c(OC)c1 (stereo not given) | 4.34 | 4.58 | 6.33 | 56.8 |  |  |
| CCOP(=O)(OCC)C(Nc1ccc(F)cc1)c1ccc(OCc2nc3ccccc3c(=O)n2-c2ccc(F)cc2)c(OC)c1 (stereo not given) | < 4.30 | 4.45 | 6.09 | 43.9 |  |  |
| CCOP(=O)(OCC)C(Nc1cc(C)ccc1C)c1ccc(OCc2nc3ccccc3c(=O)n2-c2ccc(F)cc2)c(OC)c1 (stereo not given) | < 4.30 | 4.73 | 6.38 | 45.1 | 5.22 |  |
| CCOP(=O)(OCC)C(Nc1ccccc1OC)c1ccc(OCc2nc3ccccc3c(=O)n2-c2ccc(F)cc2)c(OC)c1 (stereo not given) | 4.54 | 4.98 | 6.53 |  | 5.58 | deltaG [6]: -28.8 kJ/mol; viability at 24 h, 90 µM [7]: 85%; Activity [8]: Dose-Dependent Effect; Activity [9]: Active; Activity [10]: Active; Activity [11]: Active; viability at 24 h, up to 60 µM [13]: > 90%; Activity [14]: Dose-Dependent Effect; Activity [15]: inactive; Activity [16]: 65%; Activity [17]: Active |
| CCOP(=O)(OCC)C(Nc1ccc(C)cc1)c1ccc(OCc2nc3ccccc3c(=O)n2-c2ccc(F)cc2)c(OC)c1 (stereo not given) | 4.41 | < 4.00 | 6.17 |  |  |  |
| CCOP(=O)(OCC)C(Nc1ccccc1O)c1ccc(OCc2nc3ccccc3c(=O)n2-c2ccc(F)cc2)c(OC)c1 (stereo not given) | 4.38 | < 4.00 | 6.25 |  |  |  |
| CCOP(=O)(OCC)C(Nc1ccc(Cl)cc1)c1ccc(OCc2nc3ccccc3c(=O)n2-c2ccc(F)cc2)c(OC)c1 (stereo not given) | 4.48 | < 4.00 | 6.19 |  |  |  |

Reference: ChEMBL document CHEMBL5360568, “Synthesis and anti-Alzheimer potential of novel α-amino phosphonate derivatives and probing their molecular interaction mechanism with acetylcholinesterase” (Eur J Med Chem, 2023)
